Assays:
Type in all cases: cell-based
Settings in all cases: after 10, 20, 40 and 60 minutes at all dilutions 1:100, 1:200, 1:400, 1:800
Escherichia coli = experiment: Antimicrobial activity by agar dilution, Escherichia coli
Method: (§1) The antibacterial properties of the synthesized compound (of 2,16-dioxapentacyclo[7.7.5.0^1,21.0^3,8.0^10,15]henicosa3(8), 10,12,14-tetraene-7,20-dione) were studied by the method of agar dilution. Test solutions of each compound was prepared in concentration of 1% using dimethylformamide as a solvent. Then they were diluted in physiological solution to obtain the final experimental dilutions of 1:100, 1:200, 1:400, and 1:800. The effect of these substances were compared with furacillin in a controllable study. The testing microbes used were gram positive bacteria Staphylococcus aureus, gram negative bacteria Pseudomonas aeruginosa, Escherichia coli, and Candida albicans fungus. The experiments used for this survey were meat-pentonlu agar (EPA) for cultivation of bacteria and Saburo environment for fungi. Each experiment used 1 mL of test solution on each plate for 500 minutes. Two drops of emulsified with microbes feel were added. All experimental samples were taken from the agar after 10, 20, 40, 60 minutes in the environment on the basis of Patrk planted. Bacteria were cultivated at a temperature of 37° C. for 1 day and the mushroom was kept in a thermostat for […] at a temperature of 28° C. Then results were checked. Those of control and the antimicrobial activity for the synthesized compounds are listed in Table 1 below, with furacillin serving as a reference.

Staphylococcus aureus = experiment: Antimicrobial activity by agar dilution, Staphylococcus aureus
Method: as §1

Pseudomonas aeruginosa = experiment: Antimicrobial activity by agar dilution, Pseudomonas aeruginosa
Method: as §1

Candida albicans = experiment: Antimicrobial (antifungal) activity by agar dilution, Candida albicans
Method: as §1

Measured: inhibition activity compared with the inhibition activity of Furacilin

O=C1CCCC2=C1C1c3ccccc3OC3(CCCC(=O)C13)O2 (stereo not shown) [2,16-dioxapentacyclo[7.7.5.0^1,21.0^3,8.0^10,15]henicosa3(8), 10,12,14-tetraene-7,20-dione]
higher inhibition activity: all assays above
